Laboratory results: US6355799B1, “Substituted benzene compounds, process for their preparation, and herbicidal and defoliant compositions containing them” (ISK Americas Incorporated, priority 1997, dated 2002)

Legend:
Assay type in all cases: in vivo
[1] = test system: field corn (Zea mays L., var. Dekalb 535, CORN); assay: Post-emerge test, crop safety; conditions: rating scale 0-100 (0 no damage, 100 complete death), 14 days after application
Outline: (§1)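 Visual ratings on a 0-100 scale (0 no damage, 100 all plants dead) were taken at 14 days after treatment. Rates of 15-1000 g ai/ha in acetone, 187 l/ha, were sprayed onto soil one day after planting (pre-emerge) or onto 2-3 leaf plants with 0.25% v/v surfactant (post-emerge).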

[2] = test system: upland rice (Oryza sp., var. Tebonnet, RICE); assay: Post-emerge test, crop safety; conditions: rating scale 0-100 (0 no damage, 100 complete death), 14 days after application
Outline: as §1

[3] = test system: field corn (Zea mays L., var. Dekalb 535, CORN); assay: Pre-emerge test, crop safety; conditions: rating scale 0-100, 14 days after application
Outline: (§2)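 Compounds in acetone were track-sprayed at 15-1000 g ai/ha (187 l/ha) on sandy loam pots: pre-emerge one day after seeding, post-emerge at 2-3 leaf stage with 0.25% v/v non-ionic surfactant. Phytotoxicity was rated 14 days later on a 0 (no damage) to 100 (complete death) scale.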

[4] = test system: upland rice (Oryza sp., var. Tebonnet, RICE); assay: Pre-emerge test, crop safety; conditions: rating scale 0-100, 14 days after application
Outline: as §2

[5] = test system: redroot pigweed (Amaranthus retroflexus, AMARE); assay: Pre-emerge test, greenhouse herbicide activity screening; conditions: rating scale 0-100, 14 days after application
Outline: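 Sandy loam pots; pre-emerge: sown 1 d pre-spray, surface-watered after, then bottom-watered. Post-emerge: sown 8–21 d before, 2–3 leaf stage, + 0.25% v/v NIS, bottom-watered. Acetone, 187 l/ha track spray, 15–1000 g ai/ha. 0–100 injury score, day 14.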

[6] = test system: large crabgrass (Digitaria sanguinalis, DIGSA); assay: Post-emerge test, greenhouse herbicide activity screening; conditions: rating scale 0-100 (0 no damage, 100 complete death), 14 days after application
Outline: (§3)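 Fourteen days after spraying, crop and weed injury was graded visually from 0, no effect, to 100, every plant dead. Test substances were dissolved in acetone and applied at 15–1000 g ai/ha with a flat-fan nozzle. Application was either pre-emergence, one day after sowing, or post-emergence at the 2–3 leaf stage.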

[7] = test system: sicklepod (Cassia obtusifolia, CASOB); assay: as above; conditions: rating scale 0-100 (0 no damage, 100 complete death), 14 days after application
Outline: as §3

[8] = test system: common ragweed (Ambrosia artemisizfolia L., AMBEL); assay: as above; conditions: rating scale 0-100 (0 no damage, 100 complete death), 14 days after application
Outline: as §3

[9] = test system: green foxtail (Setaria viridis, SETVI); assay: as above; conditions: rating scale 0-100 (0 no damage, 100 complete death), 14 days after application
Outline: as §3

[10] = test system: barnyardgrass (Echinochloa crus-galli, ECHCG); assay: as above; conditions: rating scale 0-100 (0 no damage, 100 complete death), 14 days after application
Outline: as §3

[11] = test system: ivyleaf morningglory (Ipomoea hederacea, IPOHE); assay: as above; conditions: rating scale 0-100 (0 no damage, 100 complete death), 14 days after application
Outline: as §3

[12] = test system: velvetleaf (Abutilon theophrasti, ABUTH); assay: as above; conditions: rating scale 0-100 (0 no damage, 100 complete death), 14 days after application
Outline: as §3

[13] = test system: lambsquarters (Chenopodium album, CHEAL); assay: as above; conditions: rating scale 0-100 (0 no damage, 100 complete death), 14 days after application
Outline: as §3

[14] = test system: johnsongrass (Sorghum halepense, SORHA); assay: as above; conditions: rating scale 0-100 (0 no damage, 100 complete death), 14 days after application
Outline: as §3

[15] = test system: redroot pigweed (Amaranthus retroflexus, AMARE); assay: as above; conditions: rating scale 0-100 (0 no damage, 100 complete death), 14 days after application
Outline: as §3

[16] = test system: large crabgrass (Digitaria sanguinalis, DIGSA); assay: Pre-emerge test, greenhouse herbicide activity screening; conditions: rating scale 0-100, 14 days after application
Outline: as §1

[17] = test system: sicklepod (Cassia obtusifolia, CASOB); assay: as above; conditions: rating scale 0-100, 14 days after application
Outline: as §1

[18] = test system: green foxtail (Setaria viridis, SETVI); assay: as above; conditions: rating scale 0-100, 14 days after application
Outline: as §1

[19] = test system: barnyardgrass (Echinochloa crus-galli, ECHCG); assay: as above; conditions: rating scale 0-100, 14 days after application
Outline: as §1

[20] = test system: ivyleaf morningglory (Ipomoea hederacea, IPOHE); assay: as above; conditions: rating scale 0-100, 14 days after application
Outline: as §1

[21] = test system: velvetleaf (Abutilon theophrasti, ABUTH); assay: as above; conditions: rating scale 0-100, 14 days after application
Outline: as §1

[22] = test system: lambsquarters (Chenopodium album, CHEAL); assay: as above; conditions: rating scale 0-100, 14 days after application
Outline: as §1

[23] = test system: johnsongrass (Sorghum halepense, SORHA); assay: as above; conditions: rating scale 0-100, 14 days after application
Outline: as §1

## COc1c(Cl)cc(F)c(-n2c(=O)cc(C(F)(F)F)n(C)c2=O)c1CC(Cl)C(=O)OCC(F)(F)C(F)F (stereo not shown) [14-22]
[1]; Rate 63 g ai/ha
  Post-emerge phytotoxicity rating CORN (crop damage): 10
[1]; Rate 250 g ai/ha
  Post-emerge phytotoxicity rating CORN (crop damage): 50
[2]; Rate 63 g ai/ha
  Post-emerge phytotoxicity rating RICE (crop damage): 0
[2]; Rate 250 g ai/ha
  Post-emerge phytotoxicity rating RICE (crop damage): 10
[3]; 63 g ai/ha
  Pre-emerge phytotoxicity rating, crop damage CORN: 0
[3]; 250 g ai/ha
  Pre-emerge phytotoxicity rating, crop damage CORN: 0
[4]; 63 g ai/ha
  Pre-emerge phytotoxicity rating, crop damage RICE: 0
[4]; 250 g ai/ha
  Pre-emerge phytotoxicity rating, crop damage RICE: 10
[5]; 63 g ai/ha
  Pre-emerge herbicidal activity, phytotoxicity rating AMARE: 100
[5]; 250 g ai/ha
  Pre-emerge herbicidal activity, phytotoxicity rating AMARE: 100
[6]; Rate 63 g ai/ha
  Post-emerge Herbicidal Activity, phytotoxicity rating DIGSA: 80
[6]; Rate 250 g ai/ha
  Post-emerge Herbicidal Activity, phytotoxicity rating DIGSA: 95
[7]; Rate 63 g ai/ha
  Post-emerge Herbicidal Activity, phytotoxicity rating CASOB: 0
[7]; Rate 250 g ai/ha
  Post-emerge Herbicidal Activity, phytotoxicity rating CASOB: 50
[8]; Rate 63 g ai/ha
  Post-emerge Herbicidal Activity, phytotoxicity rating AMBEL: 100
[8]; Rate 250 g ai/ha
  Post-emerge Herbicidal Activity, phytotoxicity rating AMBEL: 100
[9]; Rate 63 g ai/ha
  Post-emerge Herbicidal Activity, phytotoxicity rating SETVI: 30
[9]; Rate 250 g ai/ha
  Post-emerge Herbicidal Activity, phytotoxicity rating SETVI: 60
[10]; Rate 63 g ai/ha
  Post-emerge Herbicidal Activity, phytotoxicity rating ECHCG: 100
[10]; Rate 250 g ai/ha
  Post-emerge Herbicidal Activity, phytotoxicity rating ECHCG: 100
[11]; Rate 63 g ai/ha
  Post-emerge Herbicidal Activity, phytotoxicity rating IPOHE: 10
[11]; Rate 250 g ai/ha
  Post-emerge Herbicidal Activity, phytotoxicity rating IPOHE: 80
[12]; Rate 63 g ai/ha
  Post-emerge Herbicidal Activity, phytotoxicity rating ABUTH: 30
[12]; Rate 250 g ai/ha
  Post-emerge Herbicidal Activity, phytotoxicity rating ABUTH: 100
[13]; Rate 63 g ai/ha
  Post-emerge Herbicidal Activity, phytotoxicity rating CHEAL: 50
[13]; Rate 250 g ai/ha
  Post-emerge Herbicidal Activity, phytotoxicity rating CHEAL: 90
[14]; Rate 63 g ai/ha
  Post-emerge Herbicidal Activity, phytotoxicity rating SORHA: 40
[14]; Rate 250 g ai/ha
  Post-emerge Herbicidal Activity, phytotoxicity rating SORHA: 60
[15]; Rate 63 g ai/ha
  Post-emerge Herbicidal Activity, phytotoxicity rating AMARE: 50
[15]; Rate 250 g ai/ha
  Post-emerge Herbicidal Activity, phytotoxicity rating AMARE: 100
[16]; 63 g ai/ha
  Pre-emerge herbicidal activity, phytotoxicity rating DIGSA: 0
[16]; 250 g ai/ha
  Pre-emerge herbicidal activity, phytotoxicity rating DIGSA: 50
[17]; 63 g ai/ha
  Pre-emerge herbicidal activity, phytotoxicity rating CASOB: 0
[17]; 250 g ai/ha
  Pre-emerge herbicidal activity, phytotoxicity rating CASOB: 0
[18]; 63 g ai/ha
  Pre-emerge herbicidal activity, phytotoxicity rating SETVI: 0
[18]; 250 g ai/ha
  Pre-emerge herbicidal activity, phytotoxicity rating SETVI: 0
[19]; 63 g ai/ha
  Pre-emerge herbicidal activity, phytotoxicity rating ECHCG: 0
[19]; 250 g ai/ha
  Pre-emerge herbicidal activity, phytotoxicity rating ECHCG: 0
[20]; 63 g ai/ha
  Pre-emerge herbicidal activity, phytotoxicity rating IPOHE: 0
[20]; 250 g ai/ha
  Pre-emerge herbicidal activity, phytotoxicity rating IPOHE: 0
[21]; 63 g ai/ha
  Pre-emerge herbicidal activity, phytotoxicity rating ABUTH: 0
[21]; 250 g ai/ha
  Pre-emerge herbicidal activity, phytotoxicity rating ABUTH: 70
[22]; 63 g ai/ha
  Pre-emerge herbicidal activity, phytotoxicity rating CHEAL: 20
[22]; 250 g ai/ha
  Pre-emerge herbicidal activity, phytotoxicity rating CHEAL: 90
[23]; 63 g ai/ha
  Pre-emerge herbicidal activity, phytotoxicity rating SORHA: 0
[23]; 250 g ai/ha
  Pre-emerge herbicidal activity, phytotoxicity rating SORHA: 0
